Data taken from patent US20250144164A1, “COMPOSITIONS, METHODS, AND MEDICAL COMPOSITIONS FOR TREATMENT OF AND MAINTAINING THE HEALTH OF THE LIVER” (priority 2023, published 2025).

System: CCl4-induced hepatotoxicity model
Assay: Carbon tetrachloride (CCl4)-induced hepatotoxicity model, serum ALT and survival
Assay type: in vivo, ICR/CD-1 mice
Conditions: CCL4 25 μl/kg; dose 50 mg/kg

C=CCc1cc(OC)c2c(c1)OCO2 [Myristicin]
% Change (inhibition in serum ALT): 99.7%
